# Results as given in patent US20100144853A1, “NOVEL COMBINED ADMINISTRATION” (priority 2008, published 2010).
# How the values were obtained:
# Assay type in all cases: in vitro ADME
# [1] = tested on: Lipase from Hog Pancreas; assay: Stability of COMPOUND A with Lipase, Procedure C (premix of COMPOUND A and Lipase, then COMPOUND B); details: 0.55 mg/mL Lipase
# Description: Procedure C (Premix of COMPOUND A and Lipase, Followed by Addition of COMPOUND B): Remark: Final COMPOUND B concentration: 3 μg/ml 220 μL of drug solution (stock A) and 220 μL of FeSSIF concentrate (Lecithin 37.5 mM and Sodium taurocholate 150 mM) were mixed. At time zero the reaction was started by addition of 1700 μl of Lipase in phosphate buffered saline solution (from stock C to obtain a final enzyme concentration of 0.55 mg/mL). The mixture was incubated at 37° C. and after 5 min, a 200 μL sample was taken for HPLC analysis. Then 60 μL of COMPOUND B solution (stock B) previously diluted 1:10 in phosphate buffered saline solution (corresponds to 100 μg/mL COMPOUND B) was added and as a function of time, samples of 200 μL were taken, diluted immediately with 600 μL of isopropanol and centrifuged for 5 min at 3000 rpm. The supernatant was analyzed by HPLC. 1700 μl of Lipase in phosphate buffered saline solution (from stock C to obtain a final enzyme concentration of 0.55 mg/mL) were mixed with 220 μL of FeSSIF concentrate and at time zero 220 μL of drug solution (stock A) was added. After 7 min of incubation, a 200 μL sample was taken, 60 μL of diluted COMPOUND B solution (stock B) was added and continued as described for the 1st experiment.
# [2] = tested on: Lipase from Hog Pancreas; assay: Stability of COMPOUND A with Lipase, Procedure B (premix of COMPOUND B and COMPOUND A, then Lipase); details: 10 min, 0.55 mg/mL (11 U/mL) Lipase
# Description: 240 mg Lipase (Lipase from Hog Pancreas, 20.6 U/mg Lipase, CAS No. 9001-62-1, Fluka, Art. No. 62300) were weighed into a vial and dissolved by stirring in 10 mL phosphate buffered saline solution pH 6.5. Any undissolved material was removed by centrifugation during 5 min at 5000 rpm. The supernatant was used for the experiments and diluted with PBS to obtain the Lipase at the final concentration of 0.55 mg/mL.
# Procedure B (Premix of COMPOUND B and COMPOUND A, Followed by Addition of Lipase):
# (§1) 100 μL of drug solution (stock A) were mixed with 0, 12, 25 or 50 μL esterase inhibitor solution (stock B) and 100, 88, 75 or 50 μL of FeSSIF concentrate (Lecithin37.5 mM and Sodium taurocholate 150 mM) were added to make up 200 μL of a solution with COMPOUND B concentrations of 0, 12, 25 or 50 μg/mL. At time zero, 800 μL of Lipase in phosphate buffered saline solution (from stock C to obtain final enzyme concentrations of 0.55 mg/mL) were added. The reaction mixture was incubated at 37° C. and stopped after 10 minutes by diluting one part of the reaction mixture with 3 parts Isopropanol.
# [3] = Stability of COMPOUND A in human intestinal fluids, Procedure E (suspension, excess separated by centrifugation), fasted; details: HIF-fasted
# Description: Fasted Intestinal Fluids: the fluids from 4 different subjects were collected with a naso-jejunal tube after fasting overnight and pooled.
# Procedure E (COMPOUND A and COMPOUND B in Suspension, Excess Compound Separated by Centrifugation):
# Stock J=COMPOUND B suspension (2 mg/mL)
# 100 μL of FeSSIF concentrate and 900 μL of pro-FeSSIF pH6.5 were added to 4 mg commercially available Orlistat formulation (Xenical®) containing 2 mg of lipase inhibitor 1-(3-hexyl-4-oxo-oxetan-2-yl)tridecan-2-yl 2-formyl-amino-4-methyl-pentanoate (COMPOUND B) in a vial and the formulation was dispersed by gently stirring during 15 min to obtain a fine homogenous suspension.
# 500 μL of freshly thawed intestinal fluids (fasted and stimulated state) were added to 1 mg of COMPOUND A in a 1 mL glass vial immediately followed by the addition of either 0, 10 or 20 μL of COMPOUND B suspension (stock J) corresponding to 0, 40 or 80 μg/mL of COMPOUND B. The amount of COMPOUND B was 0, 2% or 4% COMPOUND B relative to COMPOUND A. The mixture was incubated at 37° C. with gentle stirring. Samples of 90 μL were removed as function of time and centrifuged at 13′000 rpm (about 12′000×g) for 5 min. 50 μL of the supernatant was diluted with 150 μL isopropanol, centrifuged at 5′000 rpm for 5 min and the clear supernatant was analyzed by HPLC.
# [4] = tested on: Lipase from Hog Pancreas; assay: Stability of COMPOUND A with Lipase, Procedure B' (as B, lower COMPOUND B concentrations); details: after 10 min incubation, 0.55 mg/mL (11 U/mL) Lipase
# Description: as §1
# Procedure B′ (Premix of COMPOUND B and COMPOUND A, Followed by Addition of Lipase):
# The tests were repeated as described under procedure B but with final COMPOUND B concentrations of 0, 3, 6, 12 μg/ml.
structure (smiles),measurement,setting,value
"CCC(CC)CC1(C(=O)Nc2ccccc2SC(=O)C(C)C)CCCCC1 [COMPOUND A, thioisobutyric acid S-(2-{[1-(2-ethyl-butyl)-cyclohexanecarbonyl]-amino}-phenyl)ester]",Concentration of COMPOUND A,"[1]; +3 μg/mL COMPOUND B at T = 5 min, time 0 min",45300 ng/mL
same,Concentration of COMPOUND A,"[1]; +3 μg/mL COMPOUND B at T = 5 min, time 5 min",41500 ng/mL
same,Concentration of COMPOUND A,"[1]; +3 μg/mL COMPOUND B at T = 5 min, time 10 min",39100 ng/mL
same,Concentration of COMPOUND A,"[1]; +3 μg/mL COMPOUND B at T = 5 min, time 15 min",39300 ng/mL
same,Concentration of COMPOUND A,"[1]; +3 μg/mL COMPOUND B at T = 5 min, time 20 min",39100 ng/mL
same,Concentration of COMPOUND A,"[1]; +3 μg/mL COMPOUND B at T = 5 min, time 25 min",39300 ng/mL
same,Concentration of COMPOUND A,"[1]; +3 μg/mL COMPOUND B at T = 5 min, time 30 min",39300 ng/mL
same,Concentration of COMPOUND A,"[1]; +3 μg/mL COMPOUND B at T = 7 min, time 0 min",45300 ng/mL
same,Concentration of COMPOUND A,"[1]; +3 μg/mL COMPOUND B at T = 7 min, time 5 min",40400 ng/mL
same,Concentration of COMPOUND A,"[1]; +3 μg/mL COMPOUND B at T = 7 min, time 10 min",38400 ng/mL
same,Concentration of COMPOUND A,"[1]; +3 μg/mL COMPOUND B at T = 7 min, time 15 min",38200 ng/mL
same,Concentration of COMPOUND A,"[1]; +3 μg/mL COMPOUND B at T = 7 min, time 20 min",37900 ng/mL
same,Concentration of COMPOUND A,"[1]; +3 μg/mL COMPOUND B at T = 7 min, time 25 min",37800 ng/mL
same,Concentration of COMPOUND A,"[1]; +3 μg/mL COMPOUND B at T = 7 min, time 30 min",37900 ng/mL
same,Concentration of COMPOUND A,[2]; COMPOUND B 0 μg/mL,23000 ng/mL
same,Concentration of COMPOUND A,[2]; COMPOUND B 12 μg/mL,46400 ng/mL
same,Concentration of COMPOUND A,[2]; COMPOUND B 25 μg/mL,46500 ng/mL
same,Concentration of COMPOUND A,[2]; COMPOUND B 50 μg/mL,46100 ng/mL
same,Concentration of COMPOUND A,"[3]; with 40 μg/mL of COMPOUND B, 15 min",1120 ng/mL
same,Concentration of COMPOUND A,"[3]; with 40 μg/mL of COMPOUND B, 30 min",11750 ng/mL
same,Concentration of COMPOUND A,"[3]; with 40 μg/mL of COMPOUND B, 1 h",111050 ng/mL
same,Concentration of COMPOUND A,"[3]; with 40 μg/mL of COMPOUND B, 2 h",217350 ng/mL
same,Concentration of COMPOUND A,"[3]; with 40 μg/mL of COMPOUND B, 4 h",281660 ng/mL
same,Concentration of COMPOUND A,"[3]; with 80 μg/mL of COMPOUND B, 15 min",5620 ng/mL
same,Concentration of COMPOUND A,"[3]; with 80 μg/mL of COMPOUND B, 30 min",16360 ng/mL
same,Concentration of COMPOUND A,"[3]; with 80 μg/mL of COMPOUND B, 1 h",89600 ng/mL
same,Concentration of COMPOUND A,"[3]; with 80 μg/mL of COMPOUND B, 2 h",230340 ng/mL
same,Concentration of COMPOUND A,"[3]; with 80 μg/mL of COMPOUND B, 4 h",336000 ng/mL
same,Concentration of COMPOUND A,"[3]; without COMPOUND B, 15 min",1620 ng/mL
same,Concentration of COMPOUND A,"[3]; without COMPOUND B, 30 min",1860 ng/mL
same,Concentration of COMPOUND A,"[3]; without COMPOUND B, 1 h",490 ng/mL
same,Concentration of COMPOUND A,"[3]; without COMPOUND B, 2 h",490 ng/mL
same,Concentration of COMPOUND A,"[3]; without COMPOUND B, 4 h",490 ng/mL
same,Concentration of COMPOUND A,[4]; COMPOUND B 0 μg/ml,14200 ng/mL
same,Concentration of COMPOUND A,[4]; COMPOUND B 3 μg/ml,45900 ng/mL
same,Concentration of COMPOUND A,[4]; COMPOUND B 6 μg/ml,46500 ng/mL
same,Concentration of COMPOUND A,[4]; COMPOUND B 12 μg/ml,45700 ng/mL
